Source: ChEMBL document CHEMBL1201862, “PubChem BioAssay data set” (2004)
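Each compound was tested at five concentrations against cells in 96-well plates for 48 hours. Here, GI50 denotes the concentration required for 50% inhibition of growth.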 The source made the active and inactive calls. No stated cut-off is given here; in the data, active = GI50 up to about 1.1 µM and inactive = higher.

Legend:
Assay in all cases: inhibition of tumour cell growth, NCI panel, 48 h
HOP-62 = tested on: HOP-62
NCI-H460 = tested on: NCI-H460
PC-3 = tested on: PC-3
SK-MEL-28 = tested on: SK-MEL-28
HCC 2998 = tested on: HCC 2998
MDA-MB-231 = tested on: MDA-MB-231
786-0 = tested on: 786-0
HOP-92 = tested on: HOP-92
NCI/ADR-RES = tested on: NCI/ADR-RES
COLO 205 = tested on: COLO 205
DU-145 = tested on: DU-145
OVCAR-3 = tested on: OVCAR-3
HCT-116 = tested on: HCT-116
CAKI-1 = tested on: CAKI-1
UACC-257 = tested on: UACC-257
SK-MEL-2 = tested on: SK-MEL-2
RPMI-8226 = tested on: RPMI-8226
SF-295 = tested on: SF-295
SK-MEL-5 = tested on: SK-MEL-5

| SMILES | GI50 (HOP-62) | GI50 (NCI-H460) | GI50 (PC-3) | GI50 (SK-MEL-28) | GI50 (HCC 2998) | GI50 (MDA-MB-231) | GI50 (786-0) | GI50 (HOP-92) | GI50 (NCI/ADR-RES) | GI50 (COLO 205) | GI50 (DU-145) | GI50 (OVCAR-3) | GI50 (HCT-116) | GI50 (CAKI-1) | GI50 (UACC-257) | GI50 (SK-MEL-2) | GI50 (RPMI-8226) | GI50 (SF-295) | GI50 (SK-MEL-5) |
| --- | --- | --- | --- | --- | --- | --- | --- | --- | --- | --- | --- | --- | --- | --- | --- | --- | --- | --- | --- |
| COC12OC3(C4OC41)C(C(=O)O[C@H]3CO[Si](C)(C)C(C)(C)C)C2S(=O)(=O)c1ccccc1 (stereo not given in full) | > 4.65 µM (inactive) | > 62.1 µM (inactive) | > 4.65 µM (inactive) | 3.48 µM (inactive) | > 100 µM (inactive) | > 4.65 µM (inactive) | 2.89 µM (inactive) | 3.27 µM (inactive) | > 100 µM (inactive) | 21.9 µM (inactive) | > 4.65 µM (inactive) | > 100 µM (inactive) | 4.16 µM (inactive) | 2.71 µM (inactive) | > 4.65 µM (inactive) | > 4.65 µM (inactive) | 1.67 µM (inactive) | > 25.5 µM (inactive) | – |
| Cn1c2ccccc2c(=NNc2ccc(S(=O)(=O)N=C(N)N)cc2)c2ccccc21 | 11.8 µM (inactive) | 3.37 µM (inactive) | 7.94 µM (inactive) | – | 6.25 µM (inactive) | 11.4 µM (inactive) | 5.98 µM (inactive) | 12.1 µM (inactive) | 21.8 µM (inactive) | 5.53 µM (inactive) | 11.2 µM (inactive) | 7.35 µM (inactive) | 5.65 µM (inactive) | 10.8 µM (inactive) | 15.5 µM (inactive) | 13.5 µM (inactive) | 7.8 µM (inactive) | 13.3 µM (inactive) | 5.41 µM (inactive) |
| O=C(c1ccccc1)c1c(C(F)(F)F)[n+]([O-])c2ccccc2[n+]1[O-] | 1.08 µM (active) | 0.855 µM (active) | 0.29 µM (active) | 1.91 µM (inactive) | 1.25 µM (inactive) | 1.42 µM (inactive) | 1.92 µM (inactive) | 0.207 µM (active) | 0.469 µM (active) | 1.18 µM (inactive) | 1.73 µM (inactive) | 0.343 µM (active) | 0.977 µM (active) | 0.446 µM (active) | 1.84 µM (inactive) | 1.5 µM (inactive) | 0.237 µM (active) | 1.36 µM (inactive) | 1.87 µM (inactive) |
| CCOC(=O)C1(C(=O)OCC)C[C@]23OCCC(=O)[C@H]2[C@H]2C(=O)OC(C)(C)O[C@]23C1 | > 100 µM (inactive) | > 100 µM (inactive) | > 100 µM (inactive) | > 100 µM (inactive) | > 100 µM (inactive) | > 100 µM (inactive) | > 100 µM (inactive) | > 100 µM (inactive) | > 100 µM (inactive) | > 100 µM (inactive) | > 100 µM (inactive) | > 100 µM (inactive) | > 100 µM (inactive) | > 100 µM (inactive) | > 100 µM (inactive) | > 100 µM (inactive) | > 100 µM (inactive) | > 100 µM (inactive) | > 100 µM (inactive) |
| COC(=O)c1ccc2c(c1)CC1(C2)Cc2cc3c(cc2C1)CCC3 | > 100 µM (inactive) | > 100 µM (inactive) | > 100 µM (inactive) | > 100 µM (inactive) | > 100 µM (inactive) | > 100 µM (inactive) | > 100 µM (inactive) | > 100 µM (inactive) | > 100 µM (inactive) | – | > 100 µM (inactive) | > 100 µM (inactive) | > 100 µM (inactive) | > 100 µM (inactive) | > 100 µM (inactive) | 98.2 µM (inactive) | > 100 µM (inactive) | > 100 µM (inactive) | > 100 µM (inactive) |
| CO[C@H]1C=C[C@]23c4cc5c(cc4CN(CC2O)[C@@H]3C1)OCO5 (stereo not given in full) | – | 1.53 µM (inactive) | 2.39 µM (inactive) | 2.17 µM (inactive) | 2.58 µM (inactive) | 2.67 µM (inactive) | 1.91 µM (inactive) | 0.336 µM (active) | 4.98 µM (inactive) | 2.58 µM (inactive) | 0.668 µM (active) | 1.9 µM (inactive) | 1.97 µM (inactive) | 3.59 µM (inactive) | 3.15 µM (inactive) | 1.08 µM (active) | 2.82 µM (inactive) | 0.375 µM (active) | 2.29 µM (inactive) |
| CCC1=CC(OCc2ccccc2)C(CCN(Cc2ccccc2)C(=O)OCc2ccccc2)C1 (stereo not given) | 16.5 µM (inactive) | 15.3 µM (inactive) | 14.3 µM (inactive) | 20.7 µM (inactive) | 16.5 µM (inactive) | 18.5 µM (inactive) | 19.3 µM (inactive) | 13.5 µM (inactive) | 15.9 µM (inactive) | 20.8 µM (inactive) | 16.4 µM (inactive) | 14.2 µM (inactive) | – | 14.7 µM (inactive) | 13.9 µM (inactive) | 20.2 µM (inactive) | 8.59 µM (inactive) | 14.8 µM (inactive) | 15.4 µM (inactive) |
| CCOC1OC(CO[Si](C)(C)C(C)(C)C)C(O)CC1n1ccc(=O)[nH]c1=O (stereo not given) | – | 81.3 µM (inactive) | 64.7 µM (inactive) | 61.4 µM (inactive) | > 100 µM (inactive) | 67 µM (inactive) | 78.3 µM (inactive) | 85.7 µM (inactive) | > 100 µM (inactive) | 80.5 µM (inactive) | > 100 µM (inactive) | 43.8 µM (inactive) | 17.1 µM (inactive) | 56.4 µM (inactive) | > 100 µM (inactive) | > 100 µM (inactive) | 49.8 µM (inactive) | > 100 µM (inactive) | 59.2 µM (inactive) |
| CC(=O)Nc1sc(Br)cc1S(=O)(=O)c1ccc(Cl)cc1 | – | 33.7 µM (inactive) | 17.9 µM (inactive) | 57.3 µM (inactive) | 19.4 µM (inactive) | > 100 µM (inactive) | 26.2 µM (inactive) | 20.1 µM (inactive) | 21.9 µM (inactive) | > 10 µM (inactive) | 46.6 µM (inactive) | 20.5 µM (inactive) | 26.1 µM (inactive) | > 100 µM (inactive) | 29.9 µM (inactive) | 30.1 µM (inactive) | 23.2 µM (inactive) | 31.2 µM (inactive) | > 10 µM (inactive) |
| CC(=O)OC1C2CCC3C(C)(O)C4CC(O)C(C)(C)C4(O)C(O)CC13CC2(C)O (stereo not given) | > 100 µM (inactive) | > 10 µM (inactive) | > 100 µM (inactive) | – | > 100 µM (inactive) | > 100 µM (inactive) | > 100 µM (inactive) | > 100 µM (inactive) | > 100 µM (inactive) | > 100 µM (inactive) | > 100 µM (inactive) | > 100 µM (inactive) | > 100 µM (inactive) | > 100 µM (inactive) | > 100 µM (inactive) | > 100 µM (inactive) | > 100 µM (inactive) | > 100 µM (inactive) | > 100 µM (inactive) |
| CCCCc1ccc(Nc2nc(N)c3[nH]cnc3n2)cc1 | – | 22.9 µM (inactive) | 15 µM (inactive) | 22.5 µM (inactive) | 24 µM (inactive) | 19.8 µM (inactive) | 17.2 µM (inactive) | 15.5 µM (inactive) | 15.2 µM (inactive) | 18.3 µM (inactive) | 19.2 µM (inactive) | 20.7 µM (inactive) | 17.1 µM (inactive) | 15.5 µM (inactive) | 26.5 µM (inactive) | 22.4 µM (inactive) | 25.4 µM (inactive) | 25.9 µM (inactive) | 17 µM (inactive) |
